Key:
normal rat astrocytes = assay: Cytotoxicity by MTT assay on normal astrocytes; type: cell-based; settings: 10 or 100 uM, 48 hours incubation
Description: (§1) Using glioma-selective sequences from the second family shown in FIG. 4 (and in FIG. 5(a)), a fusion molecule containing the same identical cell-targeting peptide coupled to a cell-killing peptide was designed and synthesized. Glioma cells (malignant cells originating from astrocytes) and normal astrocytes were treated with increasing concentrations (10 or 100 uM) of cytotoxic peptide alone, or cytotoxic peptide linked to the targeting peptide, i.e. the peptide drug, and cytotoxicity was evaluated by MTT assay (this assay measures cell viability).
(§2) FIG. 5(b) further illustrates the cytotoxic effect of d(KLAKLAK)2(SEQ ID NO:4) and DSTK-GG-d(KLAKLAK)2(SEQ ID NO:5) peptides on the glioma cells and the normal astrocytes. RG2 glioma cells and normal rat astrocytes were plated in quadruplicate in 96-well plates for 24 hours. Increasing concentrations (10 or 100 uM) of cytotoxic peptide alone, d(KLAKLAK)2(SEQ ID NO:4), or cytotoxic peptide linked to targeting peptide, DSTK-GG-d(KLAKLAK)2(SEQ ID NO:5), were added to the cells for 48 hours incubation. Cytotoxicity of therapeutic peptides were evaluated by MTT assay.

RG2 glioma cells [1] = assay: Cytotoxicity by MTT assay on glioma cells; type: cell-based, rat; settings: 10 or 100 uM, 48 hours incubation
Description: as §1, §2

RG2 glioma cells [2] = assay: Detection of internalized phage particles by immunofluorescence microscopy (saponin+/saponin−); type: cell-based, rat; settings: saponin-treated vs untreated RG2 cells
Description: FIG. 5(a) illustrates the detection of internalized phage particles by immunofluorescence microscopy. RG2 glioma cells were grown on chamber slides and incubated with DSTKSGNM (SEQ ID NO:3) phage. In cells treated with saponin (saponin+) to permeabilize cell membranes, both internalized and extracellular bound phage particles were accessible for staining. Without saponin treatment (saponin−), FIG. 5(a) illustrates that only extracellular phage were available for detection. These slides were then processed for immunofluorescence microscopy with antibody against filed phage, followed by a fluorescein-conjugated secondary antibody to visualize phage particles.

| Molecule | effect on normal astrocytes (MTT, cell viability) (normal rat astrocytes) | cytotoxic effect on glioma cells (MTT, cell viability) (RG2 glioma cells [1]) | internalization of phage by cells (RG2 glioma cells [2]) |
| --- | --- | --- | --- |
| CC(C)C[C@@H](NC(=O)[C@H](N)CCCCN)C(=O)N[C@H](C)C(=O)N[C@H](CCCCN)C(=O)N[C@H](CC(C)C)C(=O)N[C@H](C)C(=O)N[C@H](CCCCN)C(=O)N[C@H](CCCCN)C(=O)N[C@H](CC(C)C)C(=O)N[C@H](C)C(=O)N[C@H](CCCCN)C(=O)N[C@H](CC(C)C)C(=O)N[C@H](C)C(=O)N[C@H](CCCCN)C(=O)O [cytotoxic peptide alone, d(KLAKLAK)2, reference compound] | None of the peptides, with or without targeting, demonstrated any effect | no effect | – |
| CC(C)C[C@@H](NC(=O)[C@@H](CCCCN)NC(=O)CNC(=O)CNC(=O)[C@H](CCCCN)NC(=O)[C@@H](NC(=O)[C@H](CO)NC(=O)[C@@H](N)CC(=O)O)[C@@H](C)O)C(=O)N[C@H](C)C(=O)N[C@H](CCCCN)C(=O)N[C@H](CC(C)C)C(=O)N[C@H](C)C(=O)N[C@H](CCCCN)C(=O)N[C@H](CCCCN)C(=O)N[C@H](CC(C)C)C(=O)N[C@H](C)C(=O)N[C@H](CCCCN)C(=O)N[C@H](CC(C)C)C(=O)N[C@H](C)C(=O)N[C@H](CCCCN)C(=O)O [peptide drug, DSTK-GG-d(KLAKLAK)2] | None of the peptides, with or without targeting, demonstrated any effect | clear cytotoxic effect | – |
| DSTKSGNM [DSTKSGNM phage] | – | – | internalized |

— patent US7642063B2, “Methods for targeting and killing glioma cells” (Auburn University, priority 2004, dated 2010)
